# From paper PMC6102213, “Repurposing Thioridazine (TDZ) as an anti-inflammatory agent” (Scientific Reports, 2018)
# Biological target: T1, IKKβ (Homo sapiens, UniProt O14920)
# T1 construct: gene IKBKB
# T1 sequence (O14920 1-756): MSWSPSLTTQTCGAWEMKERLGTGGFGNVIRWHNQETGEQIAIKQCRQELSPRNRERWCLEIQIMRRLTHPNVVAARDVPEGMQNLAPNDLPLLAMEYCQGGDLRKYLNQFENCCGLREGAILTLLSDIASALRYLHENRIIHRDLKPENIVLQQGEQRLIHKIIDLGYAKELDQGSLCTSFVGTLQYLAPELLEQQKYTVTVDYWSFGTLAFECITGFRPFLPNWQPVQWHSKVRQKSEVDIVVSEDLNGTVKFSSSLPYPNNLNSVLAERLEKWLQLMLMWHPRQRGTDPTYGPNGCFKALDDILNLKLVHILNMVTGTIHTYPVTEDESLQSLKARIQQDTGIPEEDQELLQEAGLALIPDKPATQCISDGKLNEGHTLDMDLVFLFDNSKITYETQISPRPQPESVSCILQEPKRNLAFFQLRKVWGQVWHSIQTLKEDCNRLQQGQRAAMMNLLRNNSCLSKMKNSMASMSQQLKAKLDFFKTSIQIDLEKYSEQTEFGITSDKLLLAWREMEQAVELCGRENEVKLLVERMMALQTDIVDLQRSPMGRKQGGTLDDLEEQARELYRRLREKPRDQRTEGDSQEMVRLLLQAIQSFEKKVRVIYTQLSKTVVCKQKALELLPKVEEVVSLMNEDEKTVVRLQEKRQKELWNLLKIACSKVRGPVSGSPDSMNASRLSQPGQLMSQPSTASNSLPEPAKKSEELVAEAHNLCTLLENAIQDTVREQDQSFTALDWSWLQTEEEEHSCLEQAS
# Experiment: ADP-Glo IKKβ kinase assay (Promega), […] ng IKKβ, IKKtide, […] ATP
# Type: biochemical
structure (smiles),measurement,value
"CSc1ccc2c(c1)N(CCC1CCCCN1C)c1ccccc1S2 (stereo not shown) [TDZ, Thioridazine]",IC50,3.63 nM
